Experimental data as given in patent US6358927B1, “Peptide fragments and analogs derived from PBAN 1-33 NH2 for controlling moths” (priority 1994, dated 2002).

Key:
Assay type in all cases: in vivo
Heliothis peltigera [1] = assay: Pheromonotropic bioassay: peptide injected into females, pheromone content (Z11-16:Ald) of the gland measured; details: for biological activity (in words): 10 pmol in the presence of protease inhibitors for 2 hours; for effect of protease inhibitors on the biological activity of the peptide (in words): mixture of carboxypeptidase inhibitors (aprotinin and PMSF) and other protease inhibitors (TLCK, bacitracin) (FIG. 3)
Procedure: (§1) Structure activity studies were performed by an examination of the pheromonotropic activity of synthetic Hez-PAN (PBAN 1-33 NH2) and ten shorter fragments derived from its N- and C-terminal regions. Activity was tested on Heliothis peltigera using a bioassay as described by Gazit et al; (Insect Biochem., 20, 853-858, 1990). These structures are as follows:
The role of the N-terminus on the onset of the biological activity was examined using a series of peptides lacking 8, 12, 16, and 18 amino acids from their N-terminus [PBAN (9-33) NH2, PBAN (13-33) NH2, PBAN (17-33) NH2 and PBAN (19-33) NH2], respectively. […] Pheromone content was examined two hours post-injection. […] The N-terminal region may provide stability against proteolytic degradation or alternatively may play a secondary structural role.
Pheromonotropic activity was determined by injecting the peptides, dissolved in buffer phosphate to 3.5-4.5 days old females during daylight for two hours. Pheromone content is represented by the amount of the major pheromone component Z11-16:Ald.

Heliothis peltigera [2] = assay: Inhibition of pheromonotropic activity evoked by PBAN (1-33) NH2 (co-injection of free acid fragments or antiserum); details: for inhibitory activity on pheromonotropic activity evoked by PBAN (1-33) NH2 (in words): injected together with 1 pmol PBAN (1-33) NH2
Procedure: as §1, with “1990).” for “1990). These structures are as follows:”

Heliothis peltigera [3] = assay: Pheromonotropic bioassay: peptide injected into females, pheromone content (Z11-16:Ald) of the gland measured; details: shortly after injection (15-30 min) (FIG. 5)
[4] = tested on: Spodoptera littoralis larvae; assay: Melanotropic bioassay: cuticular melanization in ligated larvae; details: for Non pigmented area / Pigmented area: 10 pmol injected, ligated larvae, computerized optical density scanner; for cuticular melanization (in words): injection into ligated larvae, compared with ligation or buffer injection
Procedure: Structure activity studies were also performed with respect to the melanotropic activity of synthetic Hez-PBAN. All the fragments that were tested for their pheromonotropic activity were also tested for their melanotropic activity. Studies were performed on Spodoptera littoralis larvae using a quantitative bioassay (Altstein et al., Peptides, submitted, 1994) which examines the ability of PBAN fragments to induce cuticular melanization in ligated larvae. Ligated larvae produce smaller amounts of melanin compared to untreated larvae (Table 4) as a result of a reduction in their endogenous PBAN. Under the tested conditions ligation caused a significant, but not complete, reduction in cuticular melanization. This incomplete reduction may result from the presence of PBAN in ganglia which were not affected by the ligation or from the presence of another hormone or neuropeptide that affects this process.
Pigmented and non-pigmented areas were determined by a computerized optical density scanner as described by Altstein et al., (Peptides, submitted, 1994).

[5] = C-terminally free acid peptides, 10 pmol, in the presence of protease inhibitors for 2 hours
[6] = free acid fragment at 10 pmol injected together with PBAN (1-33) NH2 at 1 pmol
[7] = Dose of 1 pmol, injected in phosphate buffer to 3.5-4.5 days old females during daylight for two hours
[8] = Dose of 10 pmol, injected in phosphate buffer to 3.5-4.5 days old females during daylight for two hours
[9] = concentrations ranging from 1-100 pmol, tested 2 hours post injection (FIG. 4)
[10] = 1 pmol, pheromone content two hours post-injection

| Substance | Pheromone content Z11-16:Ald ng/gland ± SE (Heliothis peltigera [1]; [5]) | Inhibition (% of cont) (Heliothis peltigera [2]; [6]) | Pheromone content Z11-16:Ald ng/gland ± SE (Heliothis peltigera [2]; [6]) | Pheromone content Z11-16:Ald ng/gland ± SE (Heliothis peltigera [1]; [7]) | Pheromone content Z11-16:Ald ng/gland ± SE (Heliothis peltigera [1]; [8]) | also measured |
| --- | --- | --- | --- | --- | --- | --- |
| H-Pro-Ala^10-Asp-Gln-Glu-Met-Tyr-Arg-Gln-Asp-Pro-Glu^20-Gln-Ile-Asp-Ser-Arg-Thr-Lys-Tyr-Phe-Ser^30-Pro-Arg-Leu^23-COOH (H-PADQEMYRQDPEQIDSRTKYFSPRL-OH) [PBAN (9-33) COOH] | <1 ng/gland | 7% | 154.7 ± 22.2 ng/gland |  |  | biological activity (in words) (Heliothis peltigera [1]): lack any biological activity; inhibitory activity on pheromonotropic activity evoked by PBAN (1-33) NH2 (in words) (Heliothis peltigera [2]): did not show any inhibitory activity |
| H-Pro-Glu^20-Gln-Ile-Asp-Ser-Arg-Thr-Lys-Tyr-Phe-Ser^30-Pro-Arg-Leu^33-COOH [PBAN (19-33) COOH] | <1 ng/gland | 27% | 120.4 ± 29.2 ng/gland |  |  | biological activity (in words) (Heliothis peltigera [1]): lack any biological activity; inhibitory activity on pheromonotropic activity evoked by PBAN (1-33) NH2 (in words) (Heliothis peltigera [2]): did not show any inhibitory activity |
| H-Thr-Lys-Tyr-Phe-Ser^30-Pro-Arg-Leu^33-NH2 (H-TKYFSPRL-NH2) [PBAN (26-33) NH2] |  |  |  | 8.9 ± 3.5 d ng/gland | 12.2 ± 3.1 c′ ng/gland | pheromonotropic activity (in words) (Heliothis peltigera [1]; [9]): active only at high doses (100 pmol) |
| H-Tyr-Phe-Ser^30-Pro-Arg-Leu^33-NH2 (H-YFSPRL-NH2) [PBAN (28-33) NH2] |  |  |  | 5.6 ± 1.7 d ng/gland | 12.7 ± 4.9 c′ ng/gland | pheromonotropic activity (in words) (Heliothis peltigera [1]; [9]): active only at high doses (100 pmol); pheromonotropic activity (in words) (Heliothis peltigera [3]): does not differ significantly from that of the full length PBAN (1-33) NH2 |
| H-Glu-Met-Tyr-Arg-Gln-Asp-Pro-Glu^20-Gln-Ile-Asp-Ser-Arg-Thr-Lys-Tyr-Phe-Ser^30-Pro-Arg-Leu^33-NH2 [PBAN (13-33) NH2] |  |  |  | 4.1 ± 3.0 d ng/gland | 180.2 ± 47.3 a′ ng/gland |  |
| H-Leu^1-Ser-Asp-Asp-Met-Pro-Ala-Thr-Pro-Ala^10-Asp-Gln-Glu-Met-Tyr-Arg-Gln-Asp-Pro-Glu^20-Gln-Ile-Asp-Ser-Arg-Thr-Lys-Tyr-Phe-Ser^30-Pro-Arg-Leu^33-COOH [PBAN (1-33) COOH] | 1.4 ± 0.76 ng/gland | 0% | 170.2 ± 24.2 ng/gland |  |  | pheromonotropic activity (in words) (Heliothis peltigera [1]; 10 pmol): completely inactive; effect of protease inhibitors on the biological activity of the peptide (in words) (Heliothis peltigera [1]): did not enhance; inhibitory activity on pheromonotropic activity evoked by PBAN (1-33) NH2 (in words) (Heliothis peltigera [2]): did not show any inhibitory activity |
| H-Pro-Ala^10-Asp-Gln-Glu-Met-Tyr-Arg-Gln-Asp^18-COOH (H-PADQEMYRQD-OH) [PBAN (9-18) COOH] | <1 ng/gland | 35% | 108.1 ± 18.0 ng/gland |  |  | biological activity (in words) (Heliothis peltigera [1]): lack any biological activity; inhibition of the pheromonotropic activity (Heliothis peltigera [2]; 100 pmol of fragment together with 0.5 pmol PBAN (1-33) NH2 (FIG. 6)): 40%; Non pigmented area [4]: 25%; Pigmented area [4]: 75%; cuticular melanization (in words) [4]: significant decrease |
| H-Pro-Glu^20-Gln-Ile-Asp-Ser-Arg-Thr-Lys-Tyr-Phe-Ser^30-Pro-Arg-Leu^33-NH2 [PBAN (19-33) NH2] |  |  |  | 52.7 ± 21.0 b ng/gland | 133.8 ± 15.7 b′ ng/gland | pheromonotropic activity (in words) (Heliothis peltigera [1]; [10]): low activity |
| H-Gln-Asp-Pro-Glu^20-Gln-Ile-Asp-Ser-Arg-Thr-Lys-Tyr-Phe-Ser^30-Pro-Arg-Leu^33-NH2 [PBAN (17-33) NH2] |  |  |  | 24.1 ± 5.7 c ng/gland | 196.9 ± 40.7 a′ ng/gland |  |
| H-Pro-Ala^10-Asp-Gln-Glu-Met-Tyr-Arg-Gln-Asp-Pro-Glu^20-Gln-Ile-Asp-Ser-Arg-Thr-Lys-Tyr-Phe-Ser^30-Pro-Arg-Leu^33-NH2 [PBAN (9-33) NH2] |  |  |  | 143.7 ± 29.6 a ng/gland | 168.0 ± 9.2 a′ ng/gland | pheromonotropic activity (in words) (Heliothis peltigera [1]; [10]): active as PBAN (1-33) NH2 |
| H-Leu^1-Ser-Asp-Asp-Met-Pro-Ala-Thr-Pro-Ala^10-Asp-Gln-Glu-Met-Tyr-Arg-Gln-Asp-Pro-Glu^20-Gln-Ile-Asp-Ser-Arg-Thr-Lys-Tyr-Phe-Ser^30-Pro-Arg-Leu^33-NH2 [PBAN (1-33) NH2, reference compound] |  |  |  | 200.7 ± 40.7 a ng/gland | 225.2 ± 51.4 a′ ng/gland | effect of protease inhibitors on the biological activity of the peptide (in words) (Heliothis peltigera [1]): significant stimulation in its activity; Pheromone content Z11-16:Ald ng/gland ± SE (Heliothis peltigera [2]; PBAN (1-33) NH2 alone at 1 pmol (control of Table 3)): 165.0 ± 21.0 ng/gland; Non pigmented area [4]: 4%; Pigmented area [4]: 96%; cuticular melanization (in words) [4]: significant increase |
